Our source for the EC50, IC50 and calcein release EC50/COX-2 IC50 ratio values is ChEMBL document CHEMBL3232851 (Bioorg Med Chem, 2014).

The nature of series [1]: Membrane permeabilizing activity of the compound in calcein-loaded egg phosphatidylcholine liposomes assessed as release of calcein from liposomes at pH 6.8 after 10 mins by fluorescence assay. The class given is ADME, Microsome.
Series [2] has as its target T1, Prostaglandin G/H synthase 1 (Ovis aries, UniProt P05979).
T1 sequence (P05979 whole entry): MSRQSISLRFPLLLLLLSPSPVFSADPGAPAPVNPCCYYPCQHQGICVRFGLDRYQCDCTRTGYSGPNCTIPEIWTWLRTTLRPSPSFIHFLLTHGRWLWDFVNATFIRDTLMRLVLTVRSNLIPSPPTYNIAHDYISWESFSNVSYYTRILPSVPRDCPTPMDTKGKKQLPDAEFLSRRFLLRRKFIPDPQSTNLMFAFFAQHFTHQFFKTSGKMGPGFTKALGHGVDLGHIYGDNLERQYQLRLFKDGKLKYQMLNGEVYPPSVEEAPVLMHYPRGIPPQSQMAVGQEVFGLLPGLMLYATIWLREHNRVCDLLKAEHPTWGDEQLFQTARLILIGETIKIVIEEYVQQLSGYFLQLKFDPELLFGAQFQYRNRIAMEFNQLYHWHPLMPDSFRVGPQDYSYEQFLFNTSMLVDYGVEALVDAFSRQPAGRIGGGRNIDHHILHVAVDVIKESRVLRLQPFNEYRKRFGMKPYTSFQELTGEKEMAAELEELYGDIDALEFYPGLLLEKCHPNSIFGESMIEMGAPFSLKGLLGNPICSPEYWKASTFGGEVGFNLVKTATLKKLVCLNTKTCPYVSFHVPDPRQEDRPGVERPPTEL
The series can be described thus: Inhibition of purified ovine COX-1 by enzyme immunoassay.

The subject of a further series is COX-2. Description: Ratio of EC50 for membrane permeabilization to IC50 for human recombinant COX-2.
The target in series [3] is T2, Prostaglandin G/H synthase 2 (Homo sapiens, UniProt P35354).
T2 sequence (P35354 whole entry): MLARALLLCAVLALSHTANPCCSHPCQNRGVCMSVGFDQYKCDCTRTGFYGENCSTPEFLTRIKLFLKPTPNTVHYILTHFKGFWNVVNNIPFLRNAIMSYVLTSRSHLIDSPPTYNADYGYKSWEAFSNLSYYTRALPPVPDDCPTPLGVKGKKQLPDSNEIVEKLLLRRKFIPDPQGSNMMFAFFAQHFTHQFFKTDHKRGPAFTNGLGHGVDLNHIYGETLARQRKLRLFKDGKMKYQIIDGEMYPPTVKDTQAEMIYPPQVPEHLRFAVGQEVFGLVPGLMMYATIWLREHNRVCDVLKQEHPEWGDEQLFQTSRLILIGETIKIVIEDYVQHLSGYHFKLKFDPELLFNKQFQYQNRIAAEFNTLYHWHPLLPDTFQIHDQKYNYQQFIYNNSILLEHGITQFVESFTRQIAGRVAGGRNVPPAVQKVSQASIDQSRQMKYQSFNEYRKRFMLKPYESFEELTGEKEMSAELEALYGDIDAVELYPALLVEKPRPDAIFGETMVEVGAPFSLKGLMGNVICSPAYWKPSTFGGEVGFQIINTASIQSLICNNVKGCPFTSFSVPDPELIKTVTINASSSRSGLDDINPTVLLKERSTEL
Description: Inhibition of human recombinant COX-2 by enzyme immunoassay.

For `NS(=O)(=O)c1ccc(C2=C(c3ccccc3)C(=O)OC2)cc1`, the EC50 in series [1] was 480 µM.
`Cc1ccc(-c2cc(C(F)(F)F)nn2-c2ccc(S(C)(=O)=O)cc2)cc1`: the IC50 in series [2] is > 500 µM; in series [3] it was 0.13 µM. The EC50 in series [1] was 1440 µM. Also, in the series with COX-2, the calcein release EC50/COX-2 IC50 ratio is 11.1.
For the compound `CS(=O)(=O)c1ccc(-n2nc(C(F)(F)F)cc2-c2ccccc2)cc1`, the results for the IC50 in series [2] and in series [3] were > 500 µM and 6.84 µM, respectively. In series [1], the EC50 is 1300 µM. In addition, the calcein release EC50/COX-2 IC50 ratio with COX-2 is 0.19.
The like results for `Cc1ccc(C2=C(c3ccc(S(C)(=O)=O)cc3)COC2=O)cc1` were, in that order, > 500 µM, 0.3 µM, 6230 µM and 20.8.
The like results for `Cc1ccc(C2=C(c3ccc(S(N)(=O)=O)cc3)COC2=O)cc1` were, in that order, 385 µM, 0.11 µM, 24 µM and 0.22.
As for `Cc1ccc(-c2cc(C(F)(F)F)nn2-c2ccc(S(N)(=O)=O)cc2)cc1` [CELECOXIB], the EC50 in series [1] was 50 µM.
Still for that read-out and setting: under `CS(=O)(=O)c1ccc(C2=C(c3ccccc3)C(=O)OC2)cc1` [ROFECOXIB] stands 12600 µM.

Broadly, the EC50 is the midpoint of the concentration-response curve. A word on the IC50: it is the concentration that gives 50% inhibition.
